Results from ChEMBL document CHEMBL1127246, “1,2,5,6-tetrahydropyridine oxime ethers incorporating electron withdrawing groups are potent and selective muscarinic agonists” (Bioorg Med Chem Lett, 1994).
Blank lines part the entries; values can stand above or below the compound they belong to.

Tests used:
[1] = target: Muscarinic acetylcholine receptor; experiment: In vitro binding affinity against Muscarinic receptor in rat cerebral cortex using [3H]- quinuclidinyl benzilate (QNB)using as a radioligand; Value ranges from 9700-23000; format: tissue-based
Rattus norvegicus [2] = experiment: Dose required to induce a standard increase in rhythmical slow wave activity (RSA) in rats when administered intravenously; format: functional
[3] = pKa value was measured; format: physicochemical
[4] = target: Muscarinic acetylcholine receptor (Rattus norvegicus) (UniProt P08482+P08483+P08485+P08911+P10980); experiment: Selectivity is the ratio of inhibitory activities against muscarinic receptors, determined using radioligand [3H]OXO-M and 3[H}-QND; format: protein assay
[5] = Partition coefficient (logP); format: physicochemical; conditions: octanol/water
[6] = target: Muscarinic acetylcholine receptor; experiment: In vitro binding affinity against Muscarinic receptor in rat cerebral cortex using [3H]- oxotremorine-M (OXO-M) using as a radioligand; Value ranges from 65-260; format: tissue-based
Rattus norvegicus [7] = experiment: Effective dose causing 50% decrease in mean blood pressure upon intravenous administration in rats; format: functional
[8] = Ratio of compound in rat rhythmical slow wave activity assay vs efficacy causing 50% decrease in BP in rats; format: functional
[9] = target: Muscarinic acetylcholine receptor; experiment: In vitro binding affinity against Muscarinic receptor in rat cerebral cortex using [3H]- quinuclidinyl benzilate (QNB)using as a radioligand; Value ranges from 15000-15000; format: tissue-based
[10] = target: Muscarinic acetylcholine receptor; experiment: In vitro binding affinity against Muscarinic receptor in rat cerebral cortex using [3H]- oxotremorine-M (OXO-M) using as a radioligand; Value ranges from 990-1300; format: tissue-based
[11] = target: Muscarinic acetylcholine receptor; experiment: In vitro binding affinity against Muscarinic receptor in rat cerebral cortex using [3H]- quinuclidinyl benzilate (QNB)using as a radioligand; Value ranges from 1200-1800; format: tissue-based
[12] = target: Muscarinic acetylcholine receptor; experiment: In vitro binding affinity against Muscarinic receptor in rat cerebral cortex using [3H]- oxotremorine-M (OXO-M) using as a radioligand; Value ranges from 23-35; format: tissue-based
[13] = target: Muscarinic acetylcholine receptor; experiment: In vitro binding affinity against Muscarinic receptor in rat cerebral cortex using [3H]- oxotremorine-M (OXO-M) using as a radioligand; format: tissue-based
[14] = target: Muscarinic acetylcholine receptor; experiment: In vitro binding affinity against Muscarinic receptor in rat cerebral cortex using [3H]- quinuclidinyl benzilate (QNB)using as a radioligand; Value ranges from 4300-9500; format: tissue-based
[15] = target: Muscarinic acetylcholine receptor; experiment: In vitro binding affinity against Muscarinic receptor in rat cerebral cortex using [3H]- oxotremorine-M (OXO-M) using as a radioligand; Value ranges from 120-220; format: tissue-based
[16] = target: Muscarinic acetylcholine receptor; experiment: In vitro binding affinity against Muscarinic receptor in rat cerebral cortex using [3H]- quinuclidinyl benzilate (QNB)using as a radioligand; Value ranges from 2100-2300; format: tissue-based
[17] = target: Muscarinic acetylcholine receptor; experiment: In vitro binding affinity against Muscarinic receptor in rat cerebral cortex using [3H]- oxotremorine-M (OXO-M) using as a radioligand; Value ranges from 240-290; format: tissue-based
[18] = target: Muscarinic acetylcholine receptor; experiment: In vitro binding affinity against Muscarinic receptor in rat cerebral cortex using [3H]- quinuclidinyl benzilate (QNB)using as a radioligand; format: tissue-based
[19] = target: Muscarinic acetylcholine receptor; experiment: In vitro binding affinity against Muscarinic receptor in rat cerebral cortex using [3H]- quinuclidinyl benzilate (QNB)using as a radioligand; Value ranges from 1500-7200; format: tissue-based
[20] = target: Muscarinic acetylcholine receptor; experiment: In vitro binding affinity against Muscarinic receptor in rat cerebral cortex using [3H]- oxotremorine-M (OXO-M) using as a radioligand; Value ranges from 28-58; format: tissue-based
[21] = target: Muscarinic acetylcholine receptor; experiment: In vitro binding affinity against Muscarinic receptor in rat cerebral cortex using [3H]- oxotremorine-M (OXO-M) using as a radioligand; Value ranges from 2300-3500; format: tissue-based
[22] = target: Muscarinic acetylcholine receptor; experiment: In vitro binding affinity against Muscarinic receptor in rat cerebral cortex using [3H]- quinuclidinyl benzilate (QNB)using as a radioligand; Value ranges from 11000-17000; format: tissue-based
[23] = target: Muscarinic acetylcholine receptor; experiment: In vitro binding affinity against Muscarinic receptor in rat cerebral cortex using [3H]- oxotremorine-M (OXO-M) using as a radioligand; Value ranges from 840-1200; format: tissue-based
[24] = target: Muscarinic acetylcholine receptor; experiment: In vitro binding affinity against Muscarinic receptor in rat cerebral cortex using [3H]- quinuclidinyl benzilate (QNB)using as a radioligand; Value ranges from 9100-9600; format: tissue-based
[25] = target: Muscarinic acetylcholine receptor; experiment: In vitro binding affinity against Muscarinic receptor in rat cerebral cortex using [3H]- oxotremorine-M (OXO-M) using as a radioligand; Value ranges from 120-180; format: tissue-based
[26] = target: Muscarinic acetylcholine receptor; experiment: In vitro binding affinity against Muscarinic receptor in rat cerebral cortex using [3H]- quinuclidinyl benzilate (QNB)using as a radioligand; Value ranges from 4700-6700; format: tissue-based
[27] = target: Muscarinic acetylcholine receptor; experiment: In vitro binding affinity against Muscarinic receptor in rat cerebral cortex using [3H]- quinuclidinyl benzilate (QNB)using as a radioligand; Value ranges from 18000-23000; format: tissue-based
[28] = target: Muscarinic acetylcholine receptor; experiment: In vitro binding affinity against Muscarinic receptor in rat cerebral cortex using [3H]- oxotremorine-M (OXO-M) using as a radioligand; Value ranges from 46-110; format: tissue-based
[29] = target: Muscarinic acetylcholine receptor; experiment: In vitro binding affinity against Muscarinic receptor in rat cerebral cortex using [3H]- oxotremorine-M (OXO-M) using as a radioligand; Value ranges from 330-620; format: tissue-based
[30] = target: Muscarinic acetylcholine receptor; experiment: In vitro binding affinity against Muscarinic receptor in rat cerebral cortex using [3H]- quinuclidinyl benzilate (QNB)using as a radioligand; Value ranges from 8000-8500; format: tissue-based

Compound: CO/N=C/C1=CCCN(C)C1 [MILAMELINE]
IC50 [1]: 14 µM
ED Arec (Rattus norvegicus [2]): 0.15 mg/kg
pKa [3]: 8.21
Ratio [4]: 130
logP [5]: 1.45
IC50 [6]: 0.11 µM
ED50 (Rattus norvegicus [7]): 0.15 mg/kg
Ratio [8]: 1

Compound: CO/N=C(\C1=CCCN(C)C1)C(F)(F)F
IC50 [13]: 11 µM

Compound: CO/N=C(\F)C1CN2CCC1CC2 (stereo not given)
IC50 [16]: 2.2 µM
Ratio [4]: 65

Compound: CON=C(C1=CCCN(C)C1)C(F)(F)F
Ratio [4]: 5
IC50 [21]: 2.8 µM
IC50 [22]: 13 µM

Compound: CCN1CCC=C(/C(C#N)=N/OC)C1
IC50 [23]: 1 µM
Ratio [4]: 9
IC50 [24]: 9.4 µM

Compound: CO/N=C(\C#N)C1CN2CCC1CC2 (stereo not given)
Ratio [4]: 14
Ratio [8]: >10.8

Compound: CO/N=C(\Cl)C1CN2CCC1CC2 (stereo not given)
Ratio [4]: 16

Compound: CO/N=C(\CF)C1=CCCNC1
Ratio [4]: 40
IC50 [13]: 0.42 µM
IC50 [18]: 17 µM

Compound: CO/N=C(\CF)C1=CCCN(C)C1
Ratio [4]: 18
IC50 [29]: 0.45 µM
IC50 [30]: 8.3 µM

Further lines, with some results ahead:

Ratio [4]: 14
IC50 [9]: 15 µM
IC50 [10]: 1.1 µM
Compound: CO/N=C(/C1=CCCN(C)C1)C(F)F

IC50 [11]: 1.5 µM
pKa [3]: 8.6
Ratio [4]: 54
logP [5]: 1.41
IC50 [12]: 0.028 µM
Compound: CO/N=C(\C#N)C1=CCCNC1
ED Arec (Rattus norvegicus [2]): 0.032 mg/kg
ED50 (Rattus norvegicus [7]): > 0.32 mg/kg
Ratio [8]: >10

IC50 [14]: 4.5 µM
IC50 [15]: 0.15 µM
pKa [3]: 7.65
Ratio [4]: 30
logP [5]: 1.76
Compound: CO/N=C(\C#N)C1=CCCN(C)C1
ED Arec (Rattus norvegicus [2]): 0.16 mg/kg
ED50 (Rattus norvegicus [7]): > 1 mg/kg
Ratio [8]: >6.3

Ratio [4]: 11
IC50 [17]: 0.26 µM
IC50 [18]: 2.8 µM
Compound: CO/N=C(\Cl)C1=CCCN(C)C1

pKa [3]: 7.39
Ratio [4]: 100
logP [5]: 1.48
IC50 [19]: 4 µM
IC50 [20]: 0.039 µM
Compound: CO/N=C(\F)C1=CCCN(C)C1
ED Arec (Rattus norvegicus [2]): 0.054 mg/kg
ED50 (Rattus norvegicus [7]): 0.04 mg/kg
Ratio [8]: 0.74

IC50 [25]: 0.15 µM
Ratio [4]: 37
IC50 [26]: 5.6 µM
Compound: CO/N=C(\Cl)C1=CCCNC1

IC50 [27]: 20 µM
IC50 [28]: 0.071 µM
pKa [3]: 9.18
Ratio [4]: 280
logP [5]: 1.01
Compound: CO/N=C/C1=CCCNC1
ED Arec (Rattus norvegicus [2]): 0.019 mg/kg
ED50 (Rattus norvegicus [7]): 0.067 mg/kg
Ratio [8]: 3.5

Ratio [4]: 70
IC50 [13]: 0.041 µM
IC50 [18]: 2.9 µM
Compound: CO/N=C(\F)C1=CCCNC1
